Measurements as given in PMC3012033 (Lipids in Health and Disease, 2010).

What was measured:
[1] = tested on: B16F10 mice melanoma cell line; test: B16F10 melanoma cell viability (MTT, Trypan Blue exclusion); format: cell-based
Description: B16F10 mice melanoma cell line was generously provided by Dr. Roger Chammas (USP, São Paulo, Brazil). Cells were routinely cultured in RPMI 1640 medium supplemented with 10% fetal bovine serum (FBS) at 37°C in a humidified atmosphere containing 5% CO2.
To dissolve the crystals of Formazan was used dimethylsulfoxide (DMSO). Quantification was obtained by the absorbance reading at a wavelength of 450 nm to 690 nm. Cell viability was also evaluated by the method of Trypan Blue exclusion (Invitrogen, Carlsbad, CA), by direct counting in a hemocytometer.

[2] = Bone marrow and spleen cellularity; format: in vivo, C57BL/6J mice
Description: (§1) C57BL/6J mice, weighing about 20 g and 60 days older were used. After the experiments, blood was collected from the axillary plexus. The bone marrow was collected from the femur of the same animals. The spleen cellularities were also analyzed.
The animals were first anesthetized, exsanguinated and sacrificed by cervical dislocation. The bone marrow was obtained by washing the cavity with the culture femoral McCoy's 5A modified (Sigma, Chemical Company, USA) ice cream.
Sleen cells were collected by the same sacrificed animals of hematological procedures. The spleen was transferred to plastic Petri dish with iced culture McCoy's 5A modified (Sigma, Chemical Company, USA) containing 10% EDTA, used to collect the cells. In the Petri dish, the spleen capsule was broken in one of its ends, with the aid of two needles bent into "L", and fixed in syringes. The cells were gently removed from the dish by the dissociation method. The suspension was homogenized in the Petri dish with standard Pasteur pipette to complete cell separation and transferred to conical plastic tube and kept in an ice bath. The cells obtained from the spleen were quantified in a Neubauer chamber hemocytometer after dilution of 1:500 liquid Turk, diluent composed of 1% solution of glacial acetic acid. For morphological evaluation, the slides were performed in cell suspension cellspin cytocentrifuge (Incibras) and subsequently submitted to the staining of May-Grunwald GIENS, modified by Rosenfeld, and peroxidase method modified by Graham Knoll, for identification and quantification of different types cell.

[3] = Blood cells evaluation; format: in vivo, C57BL/6J mice; settings: mean ± S.E.M., seven animals
Description: as §1
Blood samples were collected twenty days after tumor implant from the axillary plexus of the animals in all experimental groups, which were used to perform blood and reticulocyte count, according to the techniques used in the Laboratory of Experimental Hematology of FCF/USP [14].

[4] = tested on: B16F10 melanoma cells; test: Cell cycle analysis by flow cytometry (propidium iodide); format: cell-based, mice; settings: 0.8 μM
Description: Cell cycle analysis was determined by flow cytometry at the Federal State University of Paraná. Briefly, after the different treatments, 2 × 10^6 cells were trypsinized, washed three times with PBS, fixed in 70% ethanol, and stained with Propidium Iodide (PI) solution. All analyses were done using a FACScalibur flow cytometer (Becton Dickinson, San Jose, CA). The red fluorescence of PI was collected through a 585/42-nm band -pass filter, and the fluorescence signals were measured in a linear scale of 1024 channels. For each sample, at least 10000 events were acquired and the data were analyzed using an appropriate software (CELLQuest, Becton Dickinson, San Jose, CA).

[5] = tested on: B16F10 melanoma; test: Tumor growth and survival of B16F10 melanoma bearing mice; format: in vivo, C57Bl/6J mice
Description: In vivo experiments were conducted in male C57BL/6J mice (18-25 g), housed at 22 ± 2°C under a 12/12 h light/dark cycle with free access to food and water until use. The animals were acclimatized to the laboratory for at least 24 h before testing and were used only once. All animal handling and experimental procedures were conducted with prior approval of the ethics committee on animal use of the University of São Paulo Medical School Hospital Ethics Committee.
To mice experimentations, the simvastatin compressed powders were macerated and watery solutions were made.
All animal's procedures were made in Butantan Institute with supervision of Dr. Durvanei Augusto Maria, in accordance with University of Sao Paulo Medical School Hospital Ethics Committee. Briefly, 5 × 10^4 B16F10 melanoma cells were injected subcutaneously into C57Bl/6J mice. […] Tumors were measured using a caliper and volume was estimated using the formula V = (small diameter)^2 × (large diameter)/¾ πR [13].
Tumor growth data were analyzed by Student's t test, survival rate data were analyzed by Kaplan-Meyer curves and hematological data were analyzed by one-way ANOVA with Tukey posttest using Graph Pad Prism Stat version 4.0 for Windows.

[6] = mice bearing melanoma treated with same doses
[7] = mice without tumor (Control-Simvastatin), vs control
[8] = melanoma bearing mice (Tumor-Simvastatin), twenty days after implant
[9] = mice without tumor (Control-Simvastatin)

CCC(C)(C)C(=O)O[C@H]1C[C@@H](C)C=C2C=C[C@H](C)[C@H](CC[C@@H]3C[C@@H](O)CC(=O)O3)[C@H]21 [simvastatin, Simvastatin]
toxic effect on B16F10 cells ([1]; 0.8 μM): toxic effect
toxic effect on B16F10 cells ([1]; 1.6 μM): toxic effect
toxicity (cell death) in the first 24 h of incubation ([1]; 1.6 μM, first 24 h): massive death
number of viable cells, trypan blue assay ([1]; cultured melanoma, after 48 hours, vs vehicle-treated): reduces the number of viable cells
Femoral Bone Marrow cellularity [2, 6]: equal
Spleen cellularity [2, 6]: equal
Femoral Bone Marrow cellularity [2, 7]: decreased
Spleen cellularity [2, 7]: decreased
Eosinophils [3, 8]: 8.5 ± 3.0 %
Hemoglobin [3, 8]: 12.4 ± 1.2 g/dL
Total Leukocytes [3, 8]: 3.9 ± 0.8 * 103/mm3
Eosinophils [3, 9]: 4.7 ± 1.4%
Hemoglobin [3, 9]: 12.8 ± 1.9 g/dL
Total Leukocytes [3, 9]: 3.3 ± 0.1 * 103/mm3
cell cycle effect ([4]; 24 hours): early cell cycle arrest in G0/G1
hypodiploid cells ([4]; after G0/G1 arrest): increase of hypodiploid cells
final tumor sizing compared to the controls ([5]; 5 mg/Kg/day orally for 10 days, started 10 days after inoculation): 25%
treated mice with a survival of 28 days (Kaplan-Meyer) ([5]; 5 mg/Kg/day orally, no survival mice of control group on day 24): Twenty-five percent
total tumoral regression ([5]; melanoma bearing mice, tumor re-started to grow when treatment aborted): not developed
tumor inhibition (B16F10 tumor growth) ([5]; over 10 days period): approximately 75%
